For this experiment, the target named is T1, AR (Homo sapiens, UniProt P10275).
T1 construct: endogenous in cells; host or cells: VCaP cells
T1 sequence (P10275 1-920): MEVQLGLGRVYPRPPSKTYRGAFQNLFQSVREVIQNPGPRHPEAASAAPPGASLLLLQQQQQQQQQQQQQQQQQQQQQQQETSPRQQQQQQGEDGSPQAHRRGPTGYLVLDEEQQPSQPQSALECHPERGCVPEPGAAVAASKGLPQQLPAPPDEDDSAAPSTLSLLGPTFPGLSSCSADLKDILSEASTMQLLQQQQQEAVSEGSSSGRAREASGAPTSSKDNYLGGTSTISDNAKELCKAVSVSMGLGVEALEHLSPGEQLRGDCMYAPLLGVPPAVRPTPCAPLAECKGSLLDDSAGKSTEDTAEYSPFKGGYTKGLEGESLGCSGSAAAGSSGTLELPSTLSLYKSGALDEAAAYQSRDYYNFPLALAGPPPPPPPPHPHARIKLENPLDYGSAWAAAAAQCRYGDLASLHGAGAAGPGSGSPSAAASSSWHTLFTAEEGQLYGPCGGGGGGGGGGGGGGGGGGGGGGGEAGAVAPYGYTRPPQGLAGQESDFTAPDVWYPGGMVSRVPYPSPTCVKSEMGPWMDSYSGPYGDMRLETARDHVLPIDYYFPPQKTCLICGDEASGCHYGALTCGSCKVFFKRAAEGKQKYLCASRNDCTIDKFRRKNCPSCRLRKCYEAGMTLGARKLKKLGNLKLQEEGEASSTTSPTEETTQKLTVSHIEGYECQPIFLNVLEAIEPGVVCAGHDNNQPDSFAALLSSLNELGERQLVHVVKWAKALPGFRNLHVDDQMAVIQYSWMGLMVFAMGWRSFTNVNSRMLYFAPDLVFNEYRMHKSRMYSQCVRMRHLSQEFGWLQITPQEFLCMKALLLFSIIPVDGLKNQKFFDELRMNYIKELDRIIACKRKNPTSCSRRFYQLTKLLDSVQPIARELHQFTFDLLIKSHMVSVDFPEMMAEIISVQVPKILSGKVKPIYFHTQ
As to the kind of experiment: VCAP AR Degradation Assay. The class given is cell-based. The note with it: for Y (AR degradation efficiency, % of DMSO control): class symbols *; for DC50: class symbols A-C. The procedure, abridged:
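AR protein in lysates quantified by sandwich ELISA after 24 h exposure of VCaP cells at 37 °C to 10 concentrations (1:3 steps, 5 μM top, final). Four-parameter logistic fit of percent-of-DMSO levels gave DC50 (50% degradation), EC50 and minimal AR level Y.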

Structures can show the parent of a compound that is named as a salt. Where two headings read alike, the source gives them in different places.

The values below come from US12404241B2 (Celgene Corporation, priority 2018, dated 2025).

Turning to `CCc1cc(N2C(=S)N(c3ccc(C#N)c(C(F)(F)F)c3)C(=O)C2(C)C)ccc1OCCN1CCN(CC(=O)Nc2cccc(N[C@@H]3CCC(=O)NC3=O)c2)[C@H](C)C1` [Example 112, 2-((R)-4-(2-(4-(3-(4-cyano-3-(trifluoromethyl)phenyl)-5,5-dimethyl-4-oxo-2-thioxoimidazolidin-1-yl)-2-ethylphenoxy)ethyl)-2-methylpiperazin-1-yl)-N-(3-((R)-2,6-dioxopiperidin-3-ylamino)phenyl)acetamide], the “Y (AR degradation efficiency, % of DMSO control)” value is recorded as “* (0<Y<=25%)”. Further, under “read-out: DC50”, the DC50 was less than 100 nM.
On the same counts, the results for `CC(F)(F)c1cc(N2C(=S)N(c3cnc(C#N)c(C(F)(F)F)c3)C(=O)C2(C)C)ccc1OCCN1CCN(CC(=O)Nc2cc(NC3CCC(=O)NC3=O)cc(F)c2F)CC1` (stereo not drawn) [Example 82, 2-(4-(2-(4-(3-(6-cyano-5-(trifluoromethyl)pyridin-3-yl)-5,5-dimethyl-4-oxo-2-thioxoimidazolidin-1-yl)-2-(1,1-difluoroethyl)phenoxy)ethyl)piperazin-1-yl)-N-(5-(2,6-dioxopiperidin-3-ylamino)-2,3-difluorophenyl)acetamide] are “* (0<Y<=25%)” and less than 100 nM.
For `CCc1cc(N2C(=S)N(c3ccc(C#N)c(C(F)(F)F)c3)C(=O)C2(C)C)ccc1OCCN1CCN(CC(=O)Nc2cccc(NC3CCC(=O)NC3=O)c2)[C@H](C)C1` (stereo partly drawn) [Example 45], the “Y (AR degradation efficiency, % of DMSO control)” value was “* (0<Y<=25%)”. Moreover, for the setting “read-out: DC50”, the 50% degradation concentration (DC50) was less than 100 nM.
With `C[C@@H]1CN(CCOc2ccc(N3C(=S)N(c4ccc(C#N)c(Cl)c4)C(=O)C3(C)C)cc2C2CC2)C[C@H](C)N1CC(=O)Nc1cccc(NC2CCC(=O)NC2=O)c1` (stereo partly drawn) [Example 206, 2-((2S,6R)-4-(2-(4-(3-(3-chloro-4-cyanophenyl)-5,5-dimethyl-4-oxo-2-thioxoimidazolidin-1-yl)-2-cyclopropylphenoxy)ethyl)-2,6-dimethylpiperazin-1-yl)-N-(3-(2,6-dioxopiperidin-3-ylamino)phenyl)acetamide], the “Y (AR degradation efficiency, % of DMSO control)” value is “* (0<Y<=25%)”. Further, the half-maximal degradation concentration (DC50) (read-out: DC50) is less than 100 nM.
On the same counts, the results for `CCc1cc(N2C(=S)N(c3cnc(C#N)c(C(F)(F)F)c3)C(=O)C2(C)C)ccc1OCCN1CCN(CC(=O)Nc2cccc(NC3CCC(=O)NC3=O)c2)[C@@H](C(F)(F)F)C1` (stereo partly drawn) [Example 200, 2-((R)-4-(2-(4-(3-(6-cyano-5-(trifluoromethyl)pyridin-3-yl)-5,5-dimethyl-4-oxo-2-thioxoimidazolidin-1-yl)-2-ethylphenoxy)ethyl)-2-(trifluoromethyl)piperazin-1-yl)-N-(3-(2,6-dioxopiperidin-3-ylamino)phenyl)acetamide] are “* (0<Y<=25%)” and less than 100 nM.
As for `CCc1cc(N2C(=S)N(c3ccc(C#N)c(C(F)(F)F)c3)C(=O)C2(C)C)ccc1OCCN1CCN(CC(=O)Nc2cc(F)cc(NC3CCC(=O)NC3=O)c2)CC1` (stereo not drawn) [Example 61, 2-(4-(2-(4-(3-(4-cyano-3-(trifluoromethyl)phenyl)-5,5-dimethyl-4-oxo-2-thioxoimidazolidin-1-yl)-2-ethylphenoxy)ethyl)piperazin-1-yl)-N-(3-(2,6-dioxopiperidin-3-ylamino)-5-fluorophenyl)acetamide], the “Y (AR degradation efficiency, % of DMSO control)” value was “* (0<Y<=25%)”. The DC50 (read-out: DC50) is less than 100 nM.
On to `C[C@@H]1CN(CCOc2ccc(N3C(=S)N(c4ccc(C#N)c(C(F)(F)F)c4)C(=O)C3(C)C)cc2C(C)(F)F)CCN1CC(=O)Nc1cc(Cl)cc(NC2CCC(=O)NC2=O)c1` (stereo partly drawn) [Example 148, N-(3-chloro-5-(2,6-dioxopiperidin-3-ylamino)phenyl)-2-((R)-4-(2-(4-(3-(4-cyano-3-(trifluoromethyl)phenyl)-5,5-dimethyl-4-oxo-2-thioxoimidazolidin-1-yl)-2-(1,1-difluoroethyl)phenoxy)ethyl)-2-methylpiperazin-1-yl)acetamide], for which the “Y (AR degradation efficiency, % of DMSO control)” value is reported as “* (0<Y<=25%)”. Also, the half-maximal degradation concentration (DC50) (read-out: DC50) was less than 100 nM.
On to `C[C@@H]1CN(CCOc2ncc(N3C(=S)N(c4ccc(C#N)c(C(F)(F)F)c4)C(=O)C3(C)C)cc2C2CC2)C[C@H](C)N1CC(=O)Nc1cccc(NC2CCC(=O)NC2=O)c1` (stereo partly drawn) [Example 228, 2-((2S,6R)-4-(2-(5-(3-(4-cyano-3-(trifluoromethyl)phenyl)-5,5-dimethyl-4-oxo-2-thioxoimidazolidin-1-yl)-3-cyclopropylpyridin-2-yloxy)ethyl)-2,6-dimethylpiperazin-1-yl)-N-(3-(2,6-dioxopiperidin-3-ylamino)phenyl)acetamide], for which the “Y (AR degradation efficiency, % of DMSO control)” value is reported as “* (0<Y<=25%)”. The DC50 (read-out: DC50) was less than 100 nM.
For the compound `CC(C)c1cc(N2C(=S)N(c3cnc(C#N)c(C(F)(F)F)c3)C(=O)C2(C)C)ccc1OCCN1C[C@@H](C)N(CC(=O)Nc2cccc(NC3CCC(=O)NC3=O)c2)C[C@H]1C` (stereo partly drawn) [Example 192, 2-((2R,5R)-4-(2-(4-(3-(6-cyano-5-(trifluoromethyl)pyridin-3-yl)-5,5-dimethyl-4-oxo-2-thioxoimidazolidin-1-yl)-2-isopropylphenoxy)ethyl)-2,5-dimethylpiperazin-1-yl)-N-(3-(2,6-dioxopiperidin-3-ylamino)phenyl)acetamide], the “Y (AR degradation efficiency, % of DMSO control)” value is listed as “** (25%<Y<=35%)”. The 50% degradation concentration (DC50) (read-out: DC50) lay in the range of 100 to 500 nM.
The like results for `CCc1cc(N2C(=S)N(c3ccc(C#N)c(C(F)(F)F)c3)C(=O)C2(C)C)ccc1OCCN1CCN([C@@H](C)C(=O)Nc2cccc(NC3CCC(=O)NC3=O)c2)[C@@H](C)C1` (stereo partly drawn) [Example 275, (2S)-2-((S)-4-(2-(4-(3-(4-cyano-3-(trifluoromethyl)phenyl)-5,5-dimethyl-4-oxo-2-thioxoimidazolidin-1-yl)-2-ethylphenoxy)ethyl)-2-methylpiperazin-1-yl)-N-(3-(2,6-dioxopiperidin-3-ylamino)phenyl)propanamide] were, in that order, “* (0<Y<=25%)” and less than 100 nM.
Turning to `CC1(C)C(=O)N(c2ccc(C#N)c(C(F)(F)F)c2)C(=S)N1c1ccc(OCCN2CCN(CC(=O)Nc3cccc(NC4CCC(=O)NC4=O)c3)CC2)c(C2CC2)c1` (stereo not drawn) [Example 9, hydrochloride], the “Y (AR degradation efficiency, % of DMSO control)” value is “* (0<Y<=25%)”. Moreover, for the setting “read-out: DC50”, the DC50 is less than 100 nM.
In the case of `CCc1cc(N2C(=S)N(c3cnc(C#N)c(C(F)(F)F)c3)C(=O)C2(C)C)ccc1OCCN1C[C@@H]2C[C@H]1CN2CC(=O)Nc1cc(Cl)cc(NC2CCC(=O)NC2=O)c1` (stereo partly drawn) [Example 115, N-(3-chloro-5-(2,6-dioxopiperidin-3-ylamino)phenyl)-2-((1S,4S)-5-(2-(4-(3-(6-cyano-5-(trifluoromethyl)pyridin-3-yl)-5,5-dimethyl-4-oxo-2-thioxoimidazolidin-1-yl)-2-ethylphenoxy)ethyl)-2,5-diazabicyclo[2.2.1]heptan-2-yl)acetamide], the “Y (AR degradation efficiency, % of DMSO control)” value is on record as “** (25%<Y<=35%)”. For the same compound, the DC50 (read-out: DC50) lay within 100 to 500 nM.
As for `CCc1cc(N2C(=S)N(c3cnc(C#N)c(C(F)(F)F)c3)C(=O)C2(C)C)ccc1OCCN1CC2CCC(C1)N2CC(=O)Nc1cccc(NC2CCC(=O)NC2=O)c1` (stereo not drawn) [Example 178, 2-(3-(2-(4-(3-(6-cyano-5-(trifluoromethyl)pyridin-3-yl)-5,5-dimethyl-4-oxo-2-thioxoimidazolidin-1-yl)-2-ethylphenoxy)ethyl)-3,8-diazabicyclo[3.2.1]octan-8-yl)-N-(3-(2,6-dioxopiperidin-3-ylamino)phenyl)acetamide], the “Y (AR degradation efficiency, % of DMSO control)” value was “** (25%<Y<=35%)” and the 50% degradation concentration (DC50) is less than 100 nM.
On to `CCc1cc(N2C(=S)N(c3ccc(C#N)c(C(F)(F)F)c3)C(=O)C2(C)C)ccc1OC[C@@H](C)N1C[C@@H](C)N(CC(=O)Nc2cccc(NC3CCC(=O)NC3=O)c2)[C@@H](C)C1` (single isomer, unassigned) [Example 237], for which the “Y (AR degradation efficiency, % of DMSO control)” value is reported as “** (25%<Y<=35%)”. Besides, the DC50 (read-out: DC50) was 100 to 500 nM.
The like results for `CCc1cc(N2C(=S)N(c3cnc(C#N)c(C(F)(F)F)c3)C(=O)C23CCC3)ccc1OCCN1CCN(CC(=O)Nc2cccc(NC3CCC(=O)NC3=O)c2)C(C)(C)C1` (stereo not drawn) [Example 134, 2-(4-(2-(4-(7-(6-cyano-5-(trifluoromethyl)pyridin-3-yl)-8-oxo-6-thioxo-5,7-diazaspiro[3.4]octan-5-yl)-2-ethylphenoxy)ethyl)-2,2-dimethylpiperazin-1-yl)-N-(3-(2,6-dioxopiperidin-3-ylamino)phenyl)acetamide] were, in that order, “* (0<Y<=25%)” and less than 100 nM.

Broadly, the DC50 is the concentration at which degradation of the target reaches its halfway point.
